“Also recorded” adds a separate entry of the source.
What was measured:
[1] = test system: Calu3 human airway epithelial cells; assay: IL-13 induced MUC5AC expression in Calu3 cells; assay type: cell-based; conditions: IL-13 stimulation
Procedure: Mouse models were performed according to the previous example. For investigating mucus, IL-8 release, and leukocytes, tissues were fixed using 4% paraformaldehyde (PFA), 0.2% picric acid and 3.4% sucrose in PBS and washed in methanol before embedding in paraffin. Mucus was analyzed using standard Periodic acid-Schiff (PAS) or alcian blue staining. MUC5AC was stained using anti-MUC5AC mouse antibody (1:200, Abcam, ab3649) and a secondary antibody conjugated with Alexa488 (Life Technologies, A-21206). Nuclei were stained with Hoe33342 (0.1 μg/ml PBS, Aplichem, Darmstadt, Germany). Quantikine ELISA kits (R&D systems) were used to measure secretion of the cytokine IL-8 by Calu3 cells.
Calu3 airway epithelial cells were exposed to LPS for 48 hrs and the release of the neutrophil attractor interleukin 8 (IL-8) was measured. […] Upon stimulation with the Th2 cytokine IL-13, Calu3 cells produced MUC5AC. […] Taken together, airway epithelial knockout of TMEM16A caused a defect in mucus secretion, while mucus production was retained (FIG. 16C).

TMEM16A = molecular target: T1, TMEM16A (Homo sapiens, UniProt Q5XXA6); assay: Whole cell currents in HEK293 cells expressing TMEM16A (patch clamp); assay type: cell-based; set-up: expressed in transfected cells; host or cells: HEK293 cells; conditions: overexpressing HEK293 cells; UTP 100 μM
T1 sequence (Q5XXA6 1-986): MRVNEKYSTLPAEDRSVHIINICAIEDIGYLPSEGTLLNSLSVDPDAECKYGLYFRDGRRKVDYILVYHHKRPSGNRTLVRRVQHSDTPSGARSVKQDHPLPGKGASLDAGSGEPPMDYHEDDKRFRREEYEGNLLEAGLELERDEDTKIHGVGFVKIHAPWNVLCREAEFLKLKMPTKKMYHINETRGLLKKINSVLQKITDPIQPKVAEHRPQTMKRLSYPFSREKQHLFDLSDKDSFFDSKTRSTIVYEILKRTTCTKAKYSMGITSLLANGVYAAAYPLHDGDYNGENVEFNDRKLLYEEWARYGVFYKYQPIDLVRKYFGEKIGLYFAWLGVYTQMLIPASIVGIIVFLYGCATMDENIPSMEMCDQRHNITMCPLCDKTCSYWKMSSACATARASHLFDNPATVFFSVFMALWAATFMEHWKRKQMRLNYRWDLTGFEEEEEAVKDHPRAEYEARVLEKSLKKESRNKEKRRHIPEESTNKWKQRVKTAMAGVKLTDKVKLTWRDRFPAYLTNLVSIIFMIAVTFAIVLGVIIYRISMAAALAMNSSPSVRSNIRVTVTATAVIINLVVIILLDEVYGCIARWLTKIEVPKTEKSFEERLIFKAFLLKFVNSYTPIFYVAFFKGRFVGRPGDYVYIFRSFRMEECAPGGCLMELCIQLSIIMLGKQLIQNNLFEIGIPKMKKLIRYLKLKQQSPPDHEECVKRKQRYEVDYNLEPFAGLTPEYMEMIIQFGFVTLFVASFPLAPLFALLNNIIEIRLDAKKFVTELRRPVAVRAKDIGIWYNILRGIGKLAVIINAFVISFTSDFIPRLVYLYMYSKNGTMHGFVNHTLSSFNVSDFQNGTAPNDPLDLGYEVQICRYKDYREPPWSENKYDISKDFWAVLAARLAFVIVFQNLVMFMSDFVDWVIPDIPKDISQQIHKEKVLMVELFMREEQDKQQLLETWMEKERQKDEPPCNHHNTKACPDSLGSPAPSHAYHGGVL
Procedure: FIG. 14: The TMEM16-inhibitor niflumic acid attenuates inflammatory airway disease. • A,B) OVA-sensitization induced pronounced goblet cell metaplasia as indicated by alcian blue positivity. Exposure to carbachol (CCH, 25 mg/ml, nebulizer) induced release of mucus and airway […]. Bars indicate […]. […] Mean±SEM; *significant inhibition by NFA (paired ttest). # significant difference when compared to OVA (unpaired t-test). (n) number of airways analysed or number of cells examined.
FIG. 15: Inhibition of TMEM16A and TMEM16F by niclosamide. • A) TMEM16A whole cell currents in overexpressing HEK293 cells. […]
OVA-induced allergic airway inflammation in mice caused pronounced airway goblet cell metaplasia. […] The two main TMEM16 paralogs expressed in airway epithelial and smooth muscle cells, TMEM16A and TMEM16F, were expressed in HEK293 cells and the whole cell currents upon activation by the Ca^2+ ionophore ionomycin (Iono) were measured. […]
Similar to TMEM16A, also overexpressed TMEM16F was inhibited by niclosamide (FIG. 15D). […] TMEM16A was activated by ionomycin and TMEM16A currents were measured as iodide quenching.

[2] = test system: mice homozygous for the cystic fibrosis mutation CFTR^deltaF508/deltaF508; assay type: in vivo; conditions: 13 mg/kg/day intraperitoneally for 7 days, in corn oil; vs sham
Procedure: Animals were treated for 7 days and subsequently sacrificed. Jejunum was excised, fixed in Carnoy Solution and embedded in paraffin.

In the case of `O=C(Nc1ccc([N+](=O)[O-])cc1Cl)c1cc(Cl)ccc1O` [niclosamide, 5-chloro-N-(2-chloro-4-nitrophenyl)-2-hydroxybenzamide], the Muc5AC-expression [1] is reported as “largely reduced”, the “TMEM16A outward currents activated by purinergic stimulation” value (TMEM16A) is reported as “inhibitory effect; also recorded: Concentration-dependent inhibition” and the jejunal diameters [2] is reported as “smaller”. The “mucus in jejunum (alcian blue)” value [2] was “largely reduced”.

From patent publication US20210283110A1, “COMPOUND FOR USE IN THE TREATMENT OF A DISEASE CHARACTERIZED BY DYSREGULATED MUCUS PRODUCTION AND/OR SECRETION” (UNIVERSITÄT REGENSBURG, priority 2018, published 2021)
